Test results as given in patent publication US8476275B2, “N-[piperazinyl hetaryl]arylsufonamide compounds with affinity for the dopamine D3 receptor” (Abbott GmbH & Co. KG, priority 2003, dated 2013).

Assays:
[1] = molecular target: T1, human dopamine D3 receptors (Homo sapiens, UniProt P35462); assay: Dopamine D3 receptor binding, displacement of [125I]-iodosulpride; conditions: membranes of HEK-293 cells stably expressing human D3 receptor; 0.1 nM [125I]-iodosulpride; 25° C., 60 minutes
T1 construct: expressed in transfected cells
T1 sequence (P35462 whole entry): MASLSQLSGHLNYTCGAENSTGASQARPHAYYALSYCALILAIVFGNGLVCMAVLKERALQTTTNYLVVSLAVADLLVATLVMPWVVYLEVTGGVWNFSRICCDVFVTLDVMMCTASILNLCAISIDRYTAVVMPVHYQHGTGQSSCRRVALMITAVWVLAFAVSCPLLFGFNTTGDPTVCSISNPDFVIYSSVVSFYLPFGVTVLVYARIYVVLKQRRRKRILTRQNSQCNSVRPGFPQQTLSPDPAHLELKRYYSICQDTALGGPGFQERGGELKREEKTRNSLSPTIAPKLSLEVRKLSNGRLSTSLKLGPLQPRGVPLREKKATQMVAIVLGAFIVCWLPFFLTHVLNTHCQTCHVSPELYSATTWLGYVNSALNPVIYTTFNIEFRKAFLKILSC
Description: (§1) The substance to be tested was either dissolved in methanol/Chremophor® (BASF-AG) or in dimethyl sulfoxide and then diluted with water to the desired concentration.
(§2) Each assay mixture was run in triplicate.
The incubation buffer contained 50 mM tris, 120 mM NaCl, 5 mM KCl, 2 mM CaCl2, 2 mM MgCl2 and 0.1% bovine serum albumin, 10 μM quinolone and 0.1% ascorbic acid (prepared fresh daily). The buffer was adjusted to pH 7.4 with HCl.
(§3) Measurement and Analysis:
(§4) After having been incubated at 25° C. for 60 minutes, the assay mixtures were filtered through a Whatman GF/B glass fiber filter under vacuum using a cell collecting device. The filters were transferred to scintillation viols using a filter transfer system. After 4 ml of Ultima Gold® (Packard) have been added, the samples were shaken for one hour and the radioactivity was then counted in a Beta-Counter (Packard, Tricarb 2000 or 2200CA). The cpm values were converted into dpm using a standard quench series and the program belonging to the instrument.
(§5) The inhibition curves were analyzed by means of iterative nonlinear regression analysis using the Statistical Analysis System (SAS) which is similar to the “LIGAND” program described by Munson and Rodbard.

[2] = molecular target: T2, human dopamine D2L receptors (long isoform) (Homo sapiens, UniProt P14416); assay: Dopamine D2L receptor binding, displacement of [125I] iodospiperone; conditions: ratio, HEK-293 membranes, 0.01 nM [125I] iodospiperone
T2 construct: expressed in transfected cells
T2 sequence (P14416 whole entry, canonical isoform): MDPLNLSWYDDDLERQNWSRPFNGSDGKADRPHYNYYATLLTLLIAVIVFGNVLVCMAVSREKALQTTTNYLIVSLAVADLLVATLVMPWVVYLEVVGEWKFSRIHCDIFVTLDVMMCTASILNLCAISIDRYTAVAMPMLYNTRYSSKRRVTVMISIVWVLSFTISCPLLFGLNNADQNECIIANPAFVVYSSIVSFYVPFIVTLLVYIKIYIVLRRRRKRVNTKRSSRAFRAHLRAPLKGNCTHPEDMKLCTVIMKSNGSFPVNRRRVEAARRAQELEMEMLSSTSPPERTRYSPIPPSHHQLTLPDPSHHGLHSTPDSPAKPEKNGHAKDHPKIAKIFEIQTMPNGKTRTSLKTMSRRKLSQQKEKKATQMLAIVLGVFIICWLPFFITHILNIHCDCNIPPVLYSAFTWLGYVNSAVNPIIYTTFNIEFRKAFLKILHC
Description: as §1, §2
The incubation buffer contained 50 mM tris, 120 mM NaCl, 5 mM KCl, 2 mM CaCl2, 2 mM MgCl2 and 0.1% bovine serum albumin. The buffer was adjusted to pH 7.4 with HCl.
as §3, §4, §5

“N-[2-(4-Allylpiperazin-1-yl)pyridin-5-yl]-4-(N-pyrrolidinyl)benzene-sulfonamide fumarate [Example 42]” was tested, and the Ki [1] was 5.3 nM and the “Selectivity vs. D2L” value [2] was 33.
